According to patent US10294202B2, “Pyrrolidinones as herbicides” (FMC Corporation, priority 2013, dated 2019):

Columns and labels:
lambsquarters = assay: Test D pre-/postemergence herbicide test; assay type: in vivo, Chenopodium album; details: for Plant response rating: Lambsquarters, scale 0 to 100; for Plant response rating, Lambsquarters: scale 0 to 100 (0 no effect, 100 complete control)
How it was run: (§1)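 Postemergence sprays were made on plants at the 1- to 4-leaf stage in peat-based medium, and preemergence sprays on seeds planted in silt loam. The formulation was a non-phytotoxic solvent mixture containing surfactant. Plants were compared with controls after 7 to 21 days and rated visually on a 0–100 scale.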

windgrass = assay: Test D pre-/postemergence herbicide test; assay type: in vivo, Apera spica-venti; details: for Plant response rating: Postemergence, Windgrass, scale 0 to 100; for Plant response rating, Windgrass: Preemergence, scale 0 to 100 (0 no effect, 100 complete control)
How it was run: as §1

nightshade = assay: Test E preemergence herbicide test; assay type: in vivo, Solanum ptycanthum; parameters: key: 0 = no effect, 100 = complete control
How it was run: (§2)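 Planted in silt loam; preemergence spray, non-phytotoxic solvent/surfactant formulation; greenhouse 21 d; visual score 0–100 vs controls.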

sandbur = assay: Test E preemergence herbicide test; assay type: in vivo, Cenchrus echinatus; parameters: key: 0 = no effect, 100 = complete control
How it was run: as §2

oat, wild = assay: Test D pre-/postemergence herbicide test; assay type: in vivo, Avena fatua; details: for Plant response rating: Postemergence, Oat, Wild, scale 0 to 100; for Plant response rating, Oat, Wild: Preemergence, scale 0 to 100 (0 no effect, 100 complete control)
How it was run: as §1

bluegrass = assay: Test D pre-/postemergence herbicide test; assay type: in vivo, Poa annua; details: for Plant response rating: Bluegrass, scale 0 to 100; for Plant response rating, Bluegrass: scale 0 to 100 (0 no effect, 100 complete control)
How it was run: as §1

barley, spring = assay: Test D pre-/postemergence herbicide test; assay type: in vivo, Hordeum vulgare; details: for Plant response rating: Barley, Spring, scale 0 to 100; for Plant response rating, Barley, Spring: scale 0 to 100 (0 no effect, 100 complete control)
How it was run: as §1

oilseed rape = assay: Test D pre-/postemergence herbicide test; assay type: in vivo, Brassica napus; details: for Plant response rating: Postemergence, Oilseed Rape, scale 0 to 100; for Plant response rating, Oilseed Rape: Preemergence, scale 0 to 100 (0 no effect, 100 complete control)
How it was run: as §1

Russian thistle = assay: Test D pre-/postemergence herbicide test; assay type: in vivo, Salsola kali; details: Postemergence, Russian Thistle, scale 0 to 100
How it was run: as §1

mustard, wild = assay: Test D pre-/postemergence herbicide test; assay type: in vivo, Sinapis arvensis; details: for Plant response rating: Mustard, Wild, scale 0 to 100; for Plant response rating, Mustard, Wild: scale 0 to 100 (0 no effect, 100 complete control)
How it was run: as §1

O=C1NCC(c2ccc(C(F)(F)F)cc2)C1C(=O)Nc1cccc(F)c1F (stereo not drawn) [Compound 80, N-(2,3-difluorophenyl)-2-oxo-4-[4-(trifluoromethyl)phenyl]-3-pyrrolidinecarboxamide]
15: Plant response rating (bluegrass; Postemergence, 125 g ai/ha) | Plant response rating (barley, spring; Preemergence, 125 g ai/ha)
70: Plant response rating, Nightshade (nightshade; 125 g ai/ha) | Plant response rating, Nightshade (nightshade; 250 g ai/ha) | Plant response rating, Sandbur (sandbur; 250 g ai/ha) | Plant response rating (mustard, wild; Postemergence, 31 g ai/ha) | Plant response rating (mustard, wild; Preemergence, 250 g ai/ha)
30: Plant response rating, Sandbur (sandbur; 31 g ai/ha) | Plant response rating (barley, spring; Preemergence, 250 g ai/ha) | Plant response rating (oilseed rape; 31 g ai/ha) | Plant response rating, Oilseed Rape (oilseed rape; 250 g ai/ha) | Plant response rating (Russian thistle; 62 g ai/ha)
60: Plant response rating, Nightshade (nightshade; 62 g ai/ha) | Plant response rating (oilseed rape; 250 g ai/ha)
10: Plant response rating (windgrass; 62 g ai/ha) | Plant response rating (windgrass; 125 g ai/ha) | Plant response rating (oat, wild; 31 g ai/ha) | Plant response rating (oat, wild; 62 g ai/ha) | Plant response rating (oat, wild; 250 g ai/ha) | Plant response rating, Oat, Wild (oat, wild; 125 g ai/ha) | Plant response rating (bluegrass; Postemergence, 62 g ai/ha) | Plant response rating (bluegrass; Postemergence, 250 g ai/ha) | Plant response rating, Bluegrass (bluegrass; Preemergence, 62 g ai/ha) | Plant response rating, Barley, Spring (barley, spring; Preemergence, 62 g ai/ha) | Plant response rating, Oilseed Rape (oilseed rape; 62 g ai/ha) | Plant response rating, Oilseed Rape (oilseed rape; 125 g ai/ha)
85: Plant response rating, Lambsquarters (lambsquarters; Preemergence, 31 g ai/ha) | Plant response rating (mustard, wild; Postemergence, 125 g ai/ha) | Plant response rating (mustard, wild; Postemergence, 250 g ai/ha)
50: Plant response rating, Nightshade (nightshade; 16 g ai/ha) | Plant response rating, Sandbur (sandbur; 62 g ai/ha) | Plant response rating (oilseed rape; 62 g ai/ha)
40: Plant response rating (lambsquarters; Postemergence, 125 g ai/ha)
25: Plant response rating (windgrass; 250 g ai/ha) | Plant response rating (Russian thistle; 125 g ai/ha) | Plant response rating, Mustard, Wild (mustard, wild; Preemergence, 62 g ai/ha)
75: Plant response rating, Windgrass (windgrass; 125 g ai/ha)
20: Plant response rating, Windgrass (windgrass; 62 g ai/ha) | Plant response rating, Sandbur (sandbur; 16 g ai/ha) | Plant response rating, Oat, Wild (oat, wild; 250 g ai/ha) | Plant response rating (bluegrass; Preemergence, 125 g ai/ha) | Plant response rating (Russian thistle; 31 g ai/ha)
45: Plant response rating (lambsquarters; Postemergence, 31 g ai/ha) | Plant response rating (lambsquarters; Postemergence, 62 g ai/ha) | Plant response rating (bluegrass; Preemergence, 250 g ai/ha) | Plant response rating (oilseed rape; 125 g ai/ha)
65: Plant response rating, Sandbur (sandbur; 125 g ai/ha) | Plant response rating (mustard, wild; Preemergence, 125 g ai/ha)
5: Plant response rating, Windgrass (windgrass; 31 g ai/ha) | Plant response rating (oat, wild; 125 g ai/ha) | Plant response rating, Oat, Wild (oat, wild; 62 g ai/ha) | Plant response rating (bluegrass; Postemergence, 31 g ai/ha)
90: Plant response rating (lambsquarters; Preemergence, 125 g ai/ha) | Plant response rating (lambsquarters; Preemergence, 250 g ai/ha) | Plant response rating, Windgrass (windgrass; 250 g ai/ha)
0: Plant response rating (windgrass; 31 g ai/ha) | Plant response rating, Oat, Wild (oat, wild; 31 g ai/ha) | Plant response rating, Bluegrass (bluegrass; Preemergence, 31 g ai/ha) | Plant response rating (barley, spring; Postemergence, 31 g ai/ha) | Plant response rating (barley, spring; Postemergence, 62 g ai/ha) | Plant response rating (barley, spring; Postemergence, 125 g ai/ha) | Plant response rating (barley, spring; Postemergence, 250 g ai/ha) | Plant response rating, Barley, Spring (barley, spring; Preemergence, 31 g ai/ha) | Plant response rating, Oilseed Rape (oilseed rape; 31 g ai/ha) | Plant response rating, Mustard, Wild (mustard, wild; Preemergence, 31 g ai/ha)
80: Plant response rating, Lambsquarters (lambsquarters; Preemergence, 62 g ai/ha) | Plant response rating (mustard, wild; Postemergence, 62 g ai/ha)
35: Plant response rating (lambsquarters; Postemergence, 250 g ai/ha) | Plant response rating (Russian thistle; 250 g ai/ha)
